The EC50 is the concentration needed to bring the measured effect to its halfway point. One may read the IC50 as the point on the concentration scale where inhibition reaches its midpoint. A low value points to higher potency.

Here are results for 7 molecules from publication PMC5570900, “Exploiting a novel conformational switch to control innate immunity mediated by complement protein C3a” (Nature Communications, 2017).

Assay [1] deals with T1, C3aR (Homo sapiens, UniProt Q16581).
T1 sequence (Q16581 1-482): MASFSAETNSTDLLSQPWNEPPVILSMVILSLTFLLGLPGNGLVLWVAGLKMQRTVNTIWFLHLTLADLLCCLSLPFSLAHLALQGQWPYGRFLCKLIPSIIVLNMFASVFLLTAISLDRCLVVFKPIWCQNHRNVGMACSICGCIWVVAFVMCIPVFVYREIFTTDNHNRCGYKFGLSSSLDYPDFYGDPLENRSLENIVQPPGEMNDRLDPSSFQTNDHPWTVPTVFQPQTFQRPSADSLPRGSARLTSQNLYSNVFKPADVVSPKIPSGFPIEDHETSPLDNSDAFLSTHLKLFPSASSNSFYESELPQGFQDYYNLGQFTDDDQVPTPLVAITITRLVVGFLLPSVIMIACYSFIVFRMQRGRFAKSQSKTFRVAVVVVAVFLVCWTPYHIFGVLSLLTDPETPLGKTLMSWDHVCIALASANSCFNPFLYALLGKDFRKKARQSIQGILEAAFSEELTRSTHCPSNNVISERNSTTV
Briefly: Histamine secretion in human LAD2 mast cells (agonist mode). On the set-up: Concentration-dependent histamine secretion in human LAD2 mast cells; endogenous in cells; host or cells: LAD2 human mast cells. Particulars: for EC50: compound alone, 30 min, n ≥ 3, ± SEM. The class given is cell-based. The protocol: LAD2 human mast cells (kindly provided by Dr Dean Metcalfe, National Institute of Allergy and Infectious Diseases, National Institute of Health) were cultured in StemPro®-34 Serum Free Media (Invitrogen, Australia) supplemented with StemPro®-34 nutrient, 100 U/mL penicillin, 100 μg/mL streptomycin, 2 mM GlutaMAX, and 100 ng/mL human stem cell factor (SCF). Cells were hemi-depleted weekly and were not allowed to grow beyond a density of 0.5 × 10^6/mL. This cell line was authenticated by expression of tryptase and histamine granules. For the histamine assay, 1 × 10^4 cells per well were seeded in StemPro®-34 SFM in 96-well plates for 30 min before any treatments. For agonist studies, the cells were treated with compounds prepared in media for 30 min. For antagonist studies, the cells were pre-treated with compounds prepared in SFM for 30 min before addition of C3aR agonists for another 30 min. Cells were centrifuged (500 g, 5 min, 4 °C) and cell-free supernatants were collected for measuring histamine. Histamine content was measured using the histamine EIA kit according to the manufacturer’s instructions (Abnova, Taiwan). The readings were recorded on a FLUOstar Optima (BMG LabTechnologies, Offenburg, Germany).

The target in assay [2] is T1, C3aR. Kind of assay: Intracellular Ca2+ release in human monocyte-derived macrophages (agonist mode). Particulars: HMDMs, n ≥ 3, ± SEM. The format is cell-based. On the set-up: Concentration-dependent Ca^2+ release in human monocyte-derived macrophages (HMDMs); endogenous in cells; host or cells: primary human monocyte-derived macrophages (HMDMs). The method, then: (§1) HMDMs were isolated using Ficoll-paque density centrifugation (GE Healthcare Bio-Science, Uppsala, Sweden) from buffy coat (of anonymous human donors) provided by the Australian Red Cross Blood Service, Brisbane. CD14^+ monocytes were positively selected using CD14 MicroBeads (Miltenyi Biotech, Auburn, USA)[40], [41]. CD14^+ monocytes were differentiated to HMDMs using 100 ng/mL of recombinant human macrophage colony-stimulating factor (PeptroTech, Rocky Hill, USA) for 7 days in Iscove’s modified Dulbecco’s media supplemented with 10% fetal bovine serum, penicillin (100 U/mL), streptomycin (100 µg/mL) and L-glutamine (2 mM). HMDMs were supplemented after 5 days with fresh medium containing 10 ng/ml macrophage colony-stimulating factor and collected by gentle scraping on day 7.
(§2) HMDMs were seeded to a 96-well clear-bottom black-wall assay plate at a density of 5 × 10^4 cells per well and allowed to adhere overnight. Prior to assay, cells were incubated with dye-loading buffer (Hank’s balance salt solution (HBSS) buffer, 4 μM Fluo-3 AM, 25 μl Pluronic acid F-127 and 1% fetal bovine serum) for 1 h at 37 °C. Cells were then washed once with assay buffer (HBSS supplemented with 2.5 mM probenecid and 20 mM HEPES, pH 7.4). Intracellular calcium release was monitored using a fluorescence imaging plate reader (excitation 495 nm, emission 520 nm). The percentage responses were plotted against logarithmic concentrations of each test compound[42].

The target of assay [3] is T1, C3aR. Briefly: Inhibition of hC3a-induced Ca2+ release in human monocyte-derived macrophages. The class given is cell-based. The arrangement: Concentration-dependent Ca^2+ release in human monocyte-derived macrophages (HMDMs); endogenous in cells; host or cells: primary human monocyte-derived macrophages (HMDMs). Particulars: HMDMs, hC3a 100 nM, n ≥ 3, ± SEM. The method, then:
as §1, §2

Another assay relates to mast cells. Kind of assay: Mast cell stabilizer in BR103-induced rat paw edema. The class given is in vivo. As to conditions: 20 mg/kg s.c., 30 min prior, 0.5 h. The protocol:
Male Wistar rats (8–9 weeks) were injected with BR103 (3, 350 μg in 100 μL isotonic saline) into the plantar surface of both hind paw pads using a 30G needle. The inhibitor cromolyn (20 mg/kg in 5% DMSO) was injected subcutaneously 30 min before the agonist. The antagonist BR111 (6, 5–20 mg/kg in olive oil) was administered orally as a single dose 2 h before the agonist. Paw thickness and width were measured using digital calipers (WPI) at 0, 0.5, 2, 6 and 24 h after agonist BR103 administration. Hind paw size is expressed as % change in area from baseline after 0.5 h and then normalized against maximum swelling induced by agonist alone. Researchers were not blinded to treatments given. Rat paw tissue was collected and fixed in 4% paraformaldehyde (pH 7.4) for 2 h in the cold room (4 °C). The rat paw tissue was then transferred into falcon tubes containing 30% sucrose solution in PBS and left overnight in the cold room. The next day, rat paw tissue was embedded with the Optimal Cutting Temperature compound (OCT, Sakura Finetek, USA) and stored in the −80 °C freezer before being used for making cryo-sections for histological analysis. Frozen sections of 5 microns were prepared using a cryostat-microtome (Leica Biosystems, Germany) and stained using standard protocols on the same day. In normal histological staining, such as with alcian blue and safranin O and hematoxylin and eosin (H&E), samples were briefly washed with distilled water before staining. In alcian blue and safranin O, samples were stained with 0.1% alcian blue (Sigma-Aldrich, USA) and 0.5% safranin O (Sigma-Aldrich, USA) before being mounted in mounting medium. In H&E, samples were stained with hematoxylin (Sigma-Aldrich, USA) and 0.1% eosin (Sigma-Aldrich, USA) before being mounted in mounting medium. In immunohistochemistry, samples were briefly rinsed with PBS to remove OCT and incubated with blocking medium (PBS, 0.1% triton X-100, 10% horse serum) for 1 h at room temperature. Samples were incubated with primary antibody medium (PBS, 4% horse serum, 1:200 histamine or 1:200 of tryptase or 1:150 ED1 or 1:200 ED2 antibodies) overnight at 4 °C. The next day, samples were washed with PBS and were incubated with the secondary antibody medium (PBS, 4% horse serum, detection antibody 1:1000) for 1 h at room temperature. The samples were briefly rinsed, dried and counterstained with DAPI (Invitrogen, Australia). Primary antibodies for histamine (Sigma-Aldrich, USA, H2403, monoclonal rabbit anti-rat IgG, 1: 200), tryptase (Abcam, Australia, ab2378, monoclonal mouse anti-rat IgG, 1:200), ED1 (Serotec, UK, MCA341R, monoclonal mouse anti-rat, 1:150), ED2 (Serotec, UK, MCA3424R, monoclonal mouse anti-rat, 1:200) were purchased from commercial sources. Secondary detection antibody was purchased from (Invitrogen, Australia). ED1 & ED2 positive cells were quantified using FIJI/ImageJ 1.42q software, U.S. National Institutes of Health, Bethesda, MD, USA[44]. All microscope images were obtained using an Olympus BX-51 upright microscope with Olympus DP-71 12Mp colour camera, utilizing DP Capture and DP Manager software packages (Olympus, Tokyo, Japan). Researchers who performed histological analysis and scoring were blinded to the sample identity. Rat paw tissues were collected and immediately frozen with liquid nitrogen. Frozen rat paw tissues were cut into smaller pieces and mixed with 1 mL of TRIsure (Bioline, Australia) prior to homogenizing according to manufacturer’s instructions. […]

Another assay deals with T2, C5aR (Homo sapiens, UniProt P21730).
T2 construct: endogenous in cells; host or cells: primary human monocyte-derived macrophages (HMDMs)
T2 sequence (P21730 1-350): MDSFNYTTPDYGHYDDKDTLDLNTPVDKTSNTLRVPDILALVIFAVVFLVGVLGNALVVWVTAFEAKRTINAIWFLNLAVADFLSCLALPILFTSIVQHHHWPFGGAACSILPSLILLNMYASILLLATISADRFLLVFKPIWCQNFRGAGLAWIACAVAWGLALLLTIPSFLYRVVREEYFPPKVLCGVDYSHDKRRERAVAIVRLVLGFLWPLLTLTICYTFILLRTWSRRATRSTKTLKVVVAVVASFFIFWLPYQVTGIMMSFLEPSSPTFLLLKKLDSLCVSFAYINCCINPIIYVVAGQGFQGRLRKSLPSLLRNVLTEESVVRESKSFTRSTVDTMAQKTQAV
Briefly: [125I]-hC5a competition binding on HMDMs. Particulars: [125I]-hC5a 25 pM. The method, then:
Receptor binding was performed by ligand competition with labelled 80 pM [^125I]-C3a or 25 pM [^125I]-C5a (2200 Ci/mmol; Perkin Elmer, Torrance, CA, USA) on HMDMs (1.2 × 10^6 cells/ml). HMDMs were treated with [^125I]-C3a or [^125I]-C5a ± various concentrations of unlabelled C3a/C5a or experimental ligands were diluted with assay buffer (50 mM Tris, 3 mM MgCl2, 0.1 mM CaCl2, 0.5% (w/v) BSA, pH 7.4) for 60 min at room temperature. Unbound [^125I]-C3a or [^125I]-C5a was removed by filtration through glass microfibre filter GF/B (Whatman Iner. Ltd, England) and washed three times with cold buffer (50 mM Tris-HCl pH 7.4). Bound [^125I]-C3a or [^125I]-C5a were assessed by scintillation counting on Microbeta counter. Specific binding was defined as the difference between total binding and nonspecific binding as determined in the presence of 1 μM unlabelled C3a or C5a[4].

`N=C(N)NCCC[C@H](NC(=O)c1csc(C(c2ccccc2)c2ccccc2)n1)C(=O)O` [Compound 1]: at C3aR [1], the “Type of agonist response, histamine release” value is listed as “partial agonist”. Besides, the EC50 at C3aR [1] stood at 110 ± 40 nM; at C3aR [2], 50 ± 20 nM.

Turning to `Cc1sc(C(c2ccccc2)c2ccccc2)nc1C(=O)N[C@@H](CCCNC(=N)N)C(=O)O` [Compound 2], at C3aR [1], the “Type of agonist response, histamine release” value is “full agonist response” and the response was half-maximal at 300 ± 100 nM (EC50). This molecule showed an EC50 at C3aR [2] of 140 ± 60 nM.

As to `N=C(N)NCCCC(NC(=O)c1cnc(C(c2ccccc2)c2ccccc2)s1)C(=O)O` (stereo not drawn) [Compound 4], the IC50 on C3aR [3] worked out at 600 ± 200 nM.

With `Cc1nc(C(c2ccccc2)c2ccccc2)sc1C(=O)NC(CCCNC(=N)N)C(=O)O` (stereo not drawn) [Compound 5], 2000 ± 1100 nM corresponded to half-maximal inhibition at C3aR [3] (IC50).

Regarding `O=C(O)c1cc(=O)c2c(OCC(O)COc3cccc4oc(C(=O)O)cc(=O)c34)cccc2o1` [cromolyn], in the assay on mast cells, the “Effect on BR103-induced histamine expression in paw” value is given as “reduced histamine expression”; the “Effect on BR103-induced infiltration of ED1+ macrophages” value is on record as “reduced infiltration of inflammatory ED1^+ macrophages”; the “Effect on BR103-induced inflammatory gene expression (Il1β, Il6, Tnf, Ccl3, Mcp1)” value is reported as “reduced expression of early response inflammatory genes”; the “Effect on BR103-induced mast cell activation and degranulation” value was “attenuated BR103-induced increased activation”. Moreover, the “Effect on BR103-induced paw swelling” value with mast cells (BR103 350 µg/paw i.pl.) was “significant reduction in BR103-induced paw swelling at 0.5 h, almost back to baseline levels”.

Take “Ac-cyclo-(2,6)-Phe-[Orn-Pro-dCha-Trp-Arg] [Compound 3D53, reference compound]”: the “C5aR binding by competition with [125I]-hC5a” value on C5aR is listed as “C5aR-binding”.

B1: hC5a: human complement protein C5a, ligand of C5aR (protein, UniProt P01031 678-751, looked up)
C5a anaphylatoxin: TLQKKIEEIAAKYKHSVVKKCCYDGACVNNDETCEQRAARISLGPRCIKAFTECCVVASQLRANISHKDMQLGR
modifications: C5a anaphylatoxin
notes: human complement protein C5a, ligand of C5aR
For the molecule B1, the “C5aR binding by competition with [125I]-hC5a” value with C5aR was “C5aR-binding”.
